Like-named read-outs stand apart in the source and are kept apart here. Starred links: 1 amine or outer side, 2 acyl side, 3 side chain; linkers in the order of their positions; H or OH if unused. Non-standard residues stand in square brackets, D forms with d. Groups on a side chain read outwards from the residue. No end group written: not given here. *: point of attachment. C20 diacid = O=C(O)CCCCCCCCCCCCCCCCCCC(=O)*; C18 diacid = O=C(O)CCCCCCCCCCCCCCCCC(=O)*; γGlu = O=C(O)[C@H](CCC(=O)[*:2])N[*:1]; εLys = N[C@@H](CCCCN[*:1])C(=O)[*:2]; AEEA = NCCOCCOCC(=O)O; Aib = CC(C)(N)C(=O)O; Ahx = NCCCCCC(=O)O
What was measured:
hGIPR = biological target: T1, hGIPR (Homo sapiens, UniProt P48546); assay: hGIPR CreLuc reporter gene assay in 0.5% and 100% plasma; format: cell-based; details: CreLuc reporter gene assay
T1 construct: expressed in transfected cells; host or cells: CHO cells carrying a CRE-luciferase reporter gene
T1 sequence (P48546 22-466): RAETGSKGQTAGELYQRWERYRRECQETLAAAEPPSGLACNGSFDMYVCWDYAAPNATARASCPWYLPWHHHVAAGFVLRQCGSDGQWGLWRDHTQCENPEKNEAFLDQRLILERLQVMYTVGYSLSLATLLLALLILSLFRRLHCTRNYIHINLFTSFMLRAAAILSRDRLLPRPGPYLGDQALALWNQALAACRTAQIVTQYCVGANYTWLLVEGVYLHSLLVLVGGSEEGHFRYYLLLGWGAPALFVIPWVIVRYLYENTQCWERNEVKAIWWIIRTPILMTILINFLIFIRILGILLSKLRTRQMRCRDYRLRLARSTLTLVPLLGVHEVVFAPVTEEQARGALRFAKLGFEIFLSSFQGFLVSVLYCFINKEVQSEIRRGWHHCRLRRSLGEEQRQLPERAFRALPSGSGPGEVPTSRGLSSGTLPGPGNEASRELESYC
Outline: (§1)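 HEK cells (GLP-1R, NPY2R) or CHO cells (GIPR) carrying a CRE-luciferase reporter, incubated 4 h at 37 °C with peptides in HBSS/20 mM HEPES pH 7.4 plus 0.5% human plasma, or in 100% plasma. Luminescence read; EC50 from 8-point variable-slope sigmoid fits.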

hGLP1R = biological target: T2, hGLP1R (Homo sapiens, UniProt P43220); assay: hGLP1R CreLuc reporter gene assay in 0.5% and 100% plasma; format: cell-based; details: CreLuc reporter gene assay
T2 construct: expressed in transfected cells; host or cells: HEK-293 cells carrying a CRE-luciferase reporter gene
T2 sequence (P43220 24-463): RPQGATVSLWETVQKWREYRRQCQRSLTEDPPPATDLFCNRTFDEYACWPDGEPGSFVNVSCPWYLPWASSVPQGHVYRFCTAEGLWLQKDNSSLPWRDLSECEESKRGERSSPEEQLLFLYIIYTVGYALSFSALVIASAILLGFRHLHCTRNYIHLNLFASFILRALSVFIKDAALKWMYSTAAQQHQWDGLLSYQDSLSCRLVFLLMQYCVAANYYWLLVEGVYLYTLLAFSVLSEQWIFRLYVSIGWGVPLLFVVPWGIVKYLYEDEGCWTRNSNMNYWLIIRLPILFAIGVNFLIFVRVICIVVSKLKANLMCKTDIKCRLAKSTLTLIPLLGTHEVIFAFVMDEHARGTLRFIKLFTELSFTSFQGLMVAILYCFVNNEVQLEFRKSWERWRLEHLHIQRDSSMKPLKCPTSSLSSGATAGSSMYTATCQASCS
Outline: as §1

hNPY2R = biological target: T3, hNPY2R (Homo sapiens, UniProt P49146); assay: hNPY2R CreLuc reporter gene assay in 0.5% and 100% plasma; format: cell-based; details: CreLuc reporter gene assay
T3 construct: expressed in transfected cells; host or cells: HEK-293 cells carrying a CRE-luciferase reporter gene
T3 sequence (P49146 1-381): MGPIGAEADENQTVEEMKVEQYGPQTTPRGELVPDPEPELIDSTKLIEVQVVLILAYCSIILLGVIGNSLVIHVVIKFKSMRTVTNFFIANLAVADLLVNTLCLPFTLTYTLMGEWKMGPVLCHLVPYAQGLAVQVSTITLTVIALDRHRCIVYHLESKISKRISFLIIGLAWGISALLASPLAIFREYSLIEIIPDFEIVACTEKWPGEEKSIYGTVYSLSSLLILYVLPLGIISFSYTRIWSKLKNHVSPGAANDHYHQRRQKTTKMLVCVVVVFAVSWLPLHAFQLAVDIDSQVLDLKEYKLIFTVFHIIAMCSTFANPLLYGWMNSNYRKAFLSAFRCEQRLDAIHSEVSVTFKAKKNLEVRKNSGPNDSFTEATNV
Outline: as §1

[1] = Mouse PK after intravenous application; format: in vivo; details: plasma, mean residence time, intravenous 30-60 nmol/kg, male NMRI mice
Experimental: Pharmacokinetic parameters of the peptides were determined after intravenous application to NMRI mice. Male NMRI mice were obtained from Janvier Laboratories (France) weighing 30 to 40 g. Mice were housed in standard cages with a 12:12 hour light:dark cycle and standard food and water access ad libitum. Each test peptide was dissolved in 50 mM phosphate buffer (pH 7.4)/3.5% mannitol. Intravenous application of 30-60 nmol/kg was performed via the tail vein. Serial blood samples from conscious mice were collected from the saphenous vein in EDTA-containing vials at different time points up to 56 hours post-dosing. Subsequently, plasma was prepared by centrifugation for 5 min at approximately 5000 rpm and stored at −20° C. until quantification of the peptide plasma levels by liquid chromatography mass spectrometry (LC-MS). Individual plasma concentration—time profiles were analysed by a non-compartmental approach and the resulting pharmacokinetic parameters were calculated.

[2] = 0.5% human plasma, read-out: hGIPR 0.5% hP
[3] = 100% human plasma, read-out: hGIPR 100% hP
[4] = 0.5% human plasma, read-out: hGLP1R 0.5% hP
[5] = 0.5% human plasma, read-out: hNPY2R 0.5% hP

Molecule | EC50 (hGIPR; [2]) | EC50 (hGIPR; [3]) | EC50 (hGLP1R; [4]) | EC50 (hNPY2R; [5]) | MRT [1] | EC50 (hGLP1R; 100% human plasma, read-out: hGLP1R 100% hP) | EC50 (hNPY2R; 100% human plasma, read-out: hNPY2R 100% hP)
CC[C@H](C)[C@H](NC(=O)[C@H](CC(C)C)NC(=O)[C@H](Cc1c[nH]c2ccccc12)NC(=O)[C@H](CCC(=O)O)NC(=O)[C@@H](NC(=O)[C@H](Cc1ccccc1)NC(=O)[C@H](C)NC(=O)C(C)(C)NC(=O)[C@H](CCC(N)=O)NC(=O)[C@H](C)NC(=O)[C@H](CCC(N)=O)NC(=O)[C@H](CCCCN)NC(=O)[C@H](CCC(=O)O)NC(=O)[C@H](CC(C)C)NC(=O)C(C)(C)NC(=O)[C@@H](NC(=O)[C@H](CO)NC(=O)[C@H](Cc1ccc(O)cc1)NC(=O)[C@H](CC(=O)O)NC(=O)[C@H](CO)NC(=O)[C@@H](NC(=O)[C@H](Cc1ccccc1)NC(=O)[C@@H](NC(=O)CNC(=O)[C@H](CCC(=O)O)NC(=O)C(C)(C)NC(=O)[C@@H](N)Cc1ccc(O)cc1)[C@@H](C)O)[C@@H](C)O)[C@@H](C)CC)C(C)C)C(=O)N[C@@H](CCCCNC(=O)[C@@H](N)CCCCNC(=O)CC[C@H](NC(=O)CC[C@H](NC(=O)CC[C@H](NC(=O)CC[C@H](NC(=O)CC[C@H](NC(=O)CC[C@H](NC(=O)CCCCCCCCCCCCCCCCCCC(=O)O)C(=O)O)C(=O)O)C(=O)O)C(=O)O)C(=O)O)C(=O)O)C(=O)NCC(=O)NCC(=O)N1CCC[C@H]1C(=O)N[C@@H](CO)C(=O)N[C@@H](CO)C(=O)NCC(=O)N[C@@H](C)C(=O)N[C@@H](CO)C(=O)N[C@@H](CC(C)C)C(=O)N[C@@H](CCCNC(=N)N)C(=O)N[C@@H](Cc1c[nH]cn1)C(=O)N[C@@H](Cc1ccc(O)cc1)C(=O)N[C@@H](Cc1ccc(O)cc1)C(=O)N[C@@H](CC(N)=O)C(=O)N[C@@H](Cc1c[nH]c2ccccc12)C(=O)N[C@@H](CC(C)C)C(=O)N[C@H](C(=O)N[C@@H](CCCNC(=N)N)C(=O)N(C)[C@@H](CCC(N)=O)C(=O)N[C@@H](CCCNC(=N)N)C(=O)N[C@@H](Cc1ccc(O)cc1)C(N)=O)[C@@H](C)O [Compound 85, Y-Aib-E-G-T-F-T-S-D-Y-S-I-Aib-L-E-K-Q-A-Q-Aib-A-F-V-E-W-L-I-K(1,3)-G-G-P-S-S-G-A-S-L-R-H-Y-Y-N-W-L-T-R-NMeQ-R-Y-NH2.C20DA-gGlu-gGlu-gGlu-gGlu-gGlu-gGlu-eLys(1,2)] | 0.22 nM | 1.11 nM | 0.15 nM | 10.3 nM | 12.6 h | – | –
CC[C@H](C)[C@H](NC(=O)[C@H](CC(C)C)NC(=O)[C@H](Cc1c[nH]c2ccccc12)NC(=O)[C@H](CCC(=O)O)NC(=O)[C@@H](NC(=O)[C@H](Cc1ccccc1)NC(=O)[C@H](CCC(=O)O)NC(=O)C(C)(C)NC(=O)[C@H](CCC(N)=O)NC(=O)[C@H](C)NC(=O)[C@H](CCC(N)=O)NC(=O)[C@H](CCCCN)NC(=O)[C@H](CCC(=O)O)NC(=O)[C@H](CC(C)C)NC(=O)C(C)(C)NC(=O)[C@@H](NC(=O)[C@H](CO)NC(=O)[C@H](Cc1ccc(O)cc1)NC(=O)[C@H](CC(=O)O)NC(=O)[C@H](CO)NC(=O)[C@@H](NC(=O)[C@H](Cc1ccccc1)NC(=O)[C@@H](NC(=O)CNC(=O)[C@H](CCC(=O)O)NC(=O)C(C)(C)NC(=O)[C@@H](N)Cc1ccc(O)cc1)[C@@H](C)O)[C@@H](C)O)[C@@H](C)CC)C(C)C)C(=O)N[C@@H](CCCCNC(=O)[C@@H](N)CCCCNC(=O)CC[C@H](NC(=O)CC[C@H](NC(=O)CC[C@H](NC(=O)CC[C@H](NC(=O)CC[C@H](NC(=O)CC[C@H](NC(=O)CCCCCCCCCCCCCCCCC(=O)O)C(=O)O)C(=O)O)C(=O)O)C(=O)O)C(=O)O)C(=O)O)C(=O)NCC(=O)NCC(=O)N1CCC[C@H]1C(=O)N[C@@H](CO)C(=O)N[C@@H](CCC(=O)O)C(=O)NCC(=O)N[C@@H](C)C(=O)N[C@@H](CO)C(=O)N[C@@H](CC(C)C)C(=O)N[C@@H](CCCNC(=N)N)C(=O)N[C@@H](Cc1c[nH]cn1)C(=O)N[C@@H](Cc1ccc(O)cc1)C(=O)N[C@@H](Cc1ccc(O)cc1)C(=O)N[C@@H](CC(N)=O)C(=O)N[C@@H](Cc1c[nH]c2ccccc12)C(=O)N[C@@H](CC(C)C)C(=O)N[C@H](C(=O)N[C@@H](CCCNC(=N)N)C(=O)N[C@@H](CCC(N)=O)C(=O)N[C@@H](CCCNC(=N)N)C(=O)N[C@@H](Cc1ccc(O)cc1)C(N)=O)[C@@H](C)O [Compound 255, Y-Aib-E-G-T-F-T-S-D-Y-S-I-Aib-L-E-K-Q-A-Q-Aib-E-F-V-E-W-L-I-K(1,3)-GGPSEGASLRHYYNWLTRQRY-NH2.C18DA-gGlu-gGlu-gGlu-gGlu-gGlu-gGlu-eLys(1,2)] | 0.46 nM | 1.23 nM | 0.34 nM | 17.3 nM | 11 h | – | –
Y[Aib]EGTFTSDYSI[Aib]LEKQAQ[Aib]EFVEWLIK([AEEA-AEEA-γGlu-γGlu-γGlu-C18 diacid])GGPSEGASLRHYYNWLTRQRY-NH2 [Compound 284, Y-Aib-E-G-T-F-T-S-D-Y-S-I-Aib-L-E-K-Q-A-Q-Aib-E-F-V-E-W-L-I-K(1,3)-GGPSEGASLRHYYNWLTRQRY-NH2.C18DA-gGlu-gGlu-gGlu-OEG-OEG(1,2)] | 0.33 nM | 0.8 nM | 0.51 nM | 18.8 nM | 6.8 h | – | –
Y[Aib]EGTFTSDYSI[Aib]LEKQAQ[Aib]AFVEWLIK([εLys-γGlu-γGlu-γGlu-γGlu-γGlu-γGlu-γGlu-C20 diacid])GGPSSGASLRHYYNWLTRQRY-NH2 [Compound 225, Y-Aib-E-G-T-F-T-S-D-Y-S-I-Aib-L-E-K-Q-A-Q-Aib-A-F-V-E-W-L-I-K(1,3)-GGPSSGASLRHYYNWLTRQRY-NH2.C20DA-gGlu-gGlu-gGlu-gGlu-gGlu-gGlu-gGlu-eLys(1,2)] | 0.28 nM | 1.23 nM | 0.12 nM | 14.9 nM | 13 h | – | –
Y[Aib]EGTFTSDYSI[Aib]LEKQAQ[Aib]AFVQWLIK([γGlu-γGlu-γGlu-γGlu-γGlu-γGlu-C20 diacid])GGPSEGASLRHYYNWLTRQRY-NH2 [Compound 223, Y-Aib-E-G-T-F-T-S-D-Y-S-I-Aib-L-E-K-Q-A-Q-Aib-A-F-V-Q-W-L-I-K(1,3)-GGPSEGASLRHYYNWLTRQRY-NH2.C20DA-gGlu-gGlu-gGlu-gGlu-gGlu-gGlu(1,2)] | 0.39 nM | – | 0.18 nM | 13.2 nM | 8.8 h | 4.39 nM | –
Y[Aib]EGTFTSDYSI[Aib]LEKQAQ[Aib]AFVEWLIK([AEEA-AEEA-γGlu-γGlu-γGlu-γGlu-C18 diacid])GGPSEGASLRHYYNWLTRQRY-NH2 [Compound 297, Y-Aib-E-G-T-F-T-S-D-Y-S-I-Aib-L-E-K-Q-A-Q-Aib-A-F-V-E-W-L-I-K(1,3)-GGPSEGASLRHYYNWLTRQRY-NH2.C18DA-gGlu-gGlu-gGlu-gGlu-OEG-OEG(1,2)] | 0.25 nM | 0.93 nM | 0.12 nM | – | 7.5 h | – | 40.5 nM
H-Y[Aib]EGTFTSDYSI[Aib]LEKQAQ[Aib]AFVQWLIK([Ahx-γGlu-γGlu-γGlu-γGlu-γGlu-γGlu-C18 diacid])GGPSSGASLRHYYNWLTRQRY-NH2 [Compound 139, Y-Aib-E-G-T-F-T-S-D-Y-S-I-Aib-L-E-K-Q-A-Q-Aib-A-F-V-Q-W-L-I-K(1,3)-GGPSSGASLRHYYNWLTRQRY-NH2.C18DA-gGlu-gGlu-gGlu-gGlu-gGlu-gGlu-AHX(1,2)] | 0.22 nM | 1.04 nM | 0.07 nM | 18.3 nM | 10 h | – | –

— US20240247080A1, “GLP1/GIP/NPY2 RECEPTOR TRIPLE AGONISTS” (Boehringer Ingelheim International GmbH, priority 2022, published 2024)
